According to EPA's CvTdb concentration-time database (doi:10.1093/toxsci/kfy020):

How the values were obtained:
[1] = tested on: rat; experiment: concentration in plasma after dosing
[2] = tested on: rat; experiment: concentration in plasma after dosing; details: dosed: Pentadecafluorooctanoic acid, 1.0000000000 mg/kg, oral, male, Sprague-Dawley
[3] = tested on: rat; experiment: concentration in plasma after dosing; details: dosed: Pentadecafluorooctanoic acid, 1.0000000000 mg/kg, oral, male, Sprague-Dawley; remark: listed apart in the source
[4] = tested on: rat; experiment: concentration in plasma after dosing; details: dosed: Pentadecafluorooctanoic acid, 0.2000000000 mg/kg, iv, male, Sprague-Dawley
[5] = tested on: rat; experiment: concentration in plasma after dosing; details: dosed: Pentadecafluorooctanoic acid, 0.2000000000 mg/kg, iv, male, Sprague-Dawley; remark: listed apart in the source
[6] = tested on: rat; experiment: concentration in plasma after dosing; details: dosed: Pentadecafluorooctanoic acid, 1.0000000000 mg/kg, oral, male, Sprague-Dawley; remark: listed apart in the source
[7] = tested on: rat; experiment: concentration in plasma after dosing; details: dosed: Pentadecafluorooctanoic acid, 0.2000000000 mg/kg, iv, male, Sprague-Dawley; remark: listed apart in the source
[8] = tested on: rat; experiment: concentration in brain after dosing; details: dosed: Imipramine, 10.0000000000 mg/kg, iv, male, Wistar

Cc1ncc2n1-c1ccc(Cl)cc1C(c1ccccc1F)=NC2 [Midazolam]
concentration in plasma [ng/mL], [1], dosed: Midazolam, male, Sprague-Dawley
Details	0.25 h	0.5 h	1 h	1.5 h	2 h	3 h	4 h	5 min	10 min
5.0000000000 mg/kg, iv	964	570	255	125	62.5	16.1	1	2210	1080
15.0000000000 mg/kg, oral	134	163	123	113	88.5	37.7	19.8	12.9	71.1

O=C(O)C(F)(F)C(F)(F)C(F)(F)C(F)(F)C(F)(F)C(F)(F)C(F)(F)F [Pentadecafluorooctanoic acid]
[1], dosed: Pentadecafluorooctanoic acid, male, Sprague-Dawley
Details	concentration in plasma [ng/mL]
0.25 h, 1.0000000000 mg/kg, oral	420
0.5 h, 0.2000000000 mg/kg, iv	156
0.5 h, 1.0000000000 mg/kg, oral	584
1 h, 0.2000000000 mg/kg, iv	145
1 h, 1.0000000000 mg/kg, oral	885
2 h, 0.2000000000 mg/kg, iv	150
2 h, 1.0000000000 mg/kg, oral	1170
4 h, 0.2000000000 mg/kg, iv	141
4 h, 1.0000000000 mg/kg, oral	1190
5 min, 0.2000000000 mg/kg, iv	221
8 h, 0.2000000000 mg/kg, iv	123
8 h, 1.0000000000 mg/kg, oral	1140
10 min, 0.2000000000 mg/kg, iv	188
12 h, 0.2000000000 mg/kg, iv	142
12 h, 1.0000000000 mg/kg, oral	1120
24 h, 0.2000000000 mg/kg, iv	139
24 h, 1.0000000000 mg/kg, oral	1270
48 h, 0.2000000000 mg/kg, iv	59
48 h, 1.0000000000 mg/kg, oral	911
72 h, 0.2000000000 mg/kg, iv	100
72 h, 1.0000000000 mg/kg, oral	655

concentration in plasma [ng/mL]
Details	[2]	[3]	[4]	[5]	[6]	[7]
0.25 h	248	762	–	–	363	–
0.5 h	379	608	188	245	540	150
1 h	665	897	189	226	669	144
2 h	764	950	196	236	957	138
4 h	765	924	189	196	1040	168
5 min	–	–	257	310	–	208
8 h	955	1210	171	207	1100	148
10 min	–	–	207	280	–	176
12 h	1030	1180	135	194	1100	147
24 h	1010	1130	168	195	1040	141
48 h	857	916	148	161	1510	115
72 h	563	855	122	153	663	98

CCOc1ccc(NC(C)=O)cc1 [Phenacetin]
[1], dosed: Phenacetin, 23.0000000000 mg/kg, iv, male, Sprague-Dawley
Details	concentration in plasma [ng/mL]
0.25 h	18900
0.5 h	16100
0.75 h	12200
1 h	9020
1.5 h	6630
2 h	4320
2.5 min	26300
5 min	24300
10 min	21800

O=C1NC(=O)C(c2ccccc2)(c2ccccc2)N1 [Phenytoin]
[1], dosed: Phenytoin, 25.0000000000 mg/kg, iv, duration: 1 min, male, Sprague-Dawley
Details	concentration in plasma [ng/mL]
0.25 h	21500
0.5 h	15800
0.75 h	12100
1 h	8790
1 min	461000
1.5 h	4630
2 h	2480
3 h	1500
4 h	831

[1], dosed: Phenytoin, male
Details	concentration in plasma [ng/mL]
0.25 h, 25.0000000000 mg/kg, oral, Sprague-Dawley	4120
0.25 h, 40.0000000000 mg/kg, iv, Wistar-derived	26900
0.5 h, 25.0000000000 mg/kg, oral, Sprague-Dawley	3370
0.5 h, 40.0000000000 mg/kg, iv, Wistar-derived	19300
0.75 h, 25.0000000000 mg/kg, oral, Sprague-Dawley	2620
1 h, 25.0000000000 mg/kg, oral, Sprague-Dawley	1820
1 h, 40.0000000000 mg/kg, iv, Wistar-derived	14200
1.5 h, 25.0000000000 mg/kg, oral, Sprague-Dawley	1200
1.5 h, 40.0000000000 mg/kg, iv, Wistar-derived	11700
2 h, 25.0000000000 mg/kg, oral, Sprague-Dawley	885
2 h, 40.0000000000 mg/kg, iv, Wistar-derived	8970
2.5 h, 40.0000000000 mg/kg, iv, Wistar-derived	7190
3 h, 25.0000000000 mg/kg, oral, Sprague-Dawley	1170
3 h, 40.0000000000 mg/kg, iv, Wistar-derived	4790
3.5 h, 40.0000000000 mg/kg, iv, Wistar-derived	3020
4 h, 25.0000000000 mg/kg, oral, Sprague-Dawley	1120
4 h, 40.0000000000 mg/kg, iv, Wistar-derived	2270
5 min, 40.0000000000 mg/kg, iv, Wistar-derived	54300
6 h, 25.0000000000 mg/kg, oral, Sprague-Dawley	771
8 h, 25.0000000000 mg/kg, oral, Sprague-Dawley	759
10 h, 25.0000000000 mg/kg, oral, Sprague-Dawley	865
10 min, 40.0000000000 mg/kg, iv, Wistar-derived	33800
12 h, 25.0000000000 mg/kg, oral, Sprague-Dawley	495
20 min, 40.0000000000 mg/kg, iv, Wistar-derived	23200
40 min, 40.0000000000 mg/kg, iv, Wistar-derived	16800

COCCc1ccc(OC[C@H](O)CNC(C)C)cc1 [R-Metoprolol]
[1], dosed: Metoprolol, 15.0000000000 mg/kg, oral, male, Wistar
Details	concentration in plasma [ng/mL]
1 h	24.4
1.5 h	10.1
2 h	12.2
2 min	199
2.5 h	4.49
3 h	2.07
4 h	1.05
4 min	380
8 min	84.6
10 min	108
20 min	79.3
40 min	53.9
50 min	35.4

COCCc1ccc(OC[C@@H](O)CNC(C)C)cc1 [S-Metoprolol]
[1], dosed: Metoprolol, 15.0000000000 mg/kg, oral, male, Wistar
Details	concentration in plasma [ng/mL]
0.1 h	93.2
0.5 h	53
1 h	13.9
1.5 h	8.15
2 h	6.61
2 min	219
2.5 h	2.14
3 h	1.45
4 min	425
8 min	79.3
10 min	68.6
20 min	54.7
40 min	38.4
50 min	24.4

CCCCNC(=O)NS(=O)(=O)c1ccc(C)cc1 [Tolbutamide]
[1], dosed: Tolbutamide, male
Details	concentration in plasma [ng/mL]
0.25 h, 20.0000000000 mg/kg, oral, Wistar	79100
0.5 h, 20.0000000000 mg/kg, oral, Wistar	84700
1 h, 10.0000000000 mg/kg, iv, Sprague-Dawley	43400
1 h, 20.0000000000 mg/kg, oral, Wistar	85900
1.5 h, 10.0000000000 mg/kg, iv, Sprague-Dawley	38400
2 h, 10.0000000000 mg/kg, iv, Sprague-Dawley	33400
2 h, 20.0000000000 mg/kg, oral, Wistar	76400
3 h, 10.0000000000 mg/kg, iv, Sprague-Dawley	29400
4 h, 10.0000000000 mg/kg, iv, Sprague-Dawley	25300
4 h, 20.0000000000 mg/kg, oral, Wistar	52900
5 h, 10.0000000000 mg/kg, iv, Sprague-Dawley	23100
6 h, 10.0000000000 mg/kg, iv, Sprague-Dawley	19500
6 h, 20.0000000000 mg/kg, oral, Wistar	35800
8 h, 20.0000000000 mg/kg, oral, Wistar	26600
10 min, 10.0000000000 mg/kg, iv, Sprague-Dawley	64200
12 h, 20.0000000000 mg/kg, oral, Wistar	17900
20 min, 10.0000000000 mg/kg, iv, Sprague-Dawley	57100
40 min, 10.0000000000 mg/kg, iv, Sprague-Dawley	49700

CCCC(CCC)C(=O)O [Valproic acid]
concentration in plasma [ng/mL], [1], dosed: Valproic acid, iv, Wistar
Details	10.0000000000 mg/kg	50.0000000000 mg/kg	100.0000000000 mg/kg
0.017 h	69900	290000	511000
0.05 h	49300	256000	427000
0.083 h	36300	228000	369000
0.167 h	32000	199000	329000
0.25 h	25700	168000	290000
0.5 h	14700	120000	250000
0.75 h	9080	72500	218000
1 h	5100	42900	171000
2 h	1200	5190	43700
3 h	494	2040	4030
4 h	298	905	1600

concentration in plasma [ng/mL], [1], dosed: Valproic acid, oral, female, Sprague-Dawley
Details	0.25 h	0.5 h	0.75 h	1 h	2 h	4 h
200.0000000000 mg/kg	269000	333000	246000	182000	95600	23000
600.0000000000 mg/kg	558000	841000	755000	691000	643000	294000

CNCCCN1c2ccccc2CCc2ccccc21 [desmethylimipramine]
[1], dosed: Imipramine, 10.0000000000 mg/kg, iv, male, Wistar
Details	concentration in plasma [ng/mL]
1 h	290
2 h	370
4 h	300
5 min	440
10 min	570

[8]
Details	concentration in brain [µg/g]
0.5 h	8.62
1 h	1.08
2 h	0.86
4 h	0.72
5 min	1.44
6 h	0.69
10 min	1.8
